# Experiments:
# DPPH antioxidant assay = type: biochemical
# Protocol: The ability of the cannabinoids to act as potential antioxidants was assessed using the 2,2-diphenyl-1-picrylhydrazyl (DPPH) antioxidant assay. The cannabinoids CBDA, CBD, CBDVA, CBDV, CBG, THCV, and the 1:1 CBD:CBDA mixture had the highest antioxidant activities with radical scavenging activities of 38.19%, 48.00%, 43.81%, 44.21%, 44.28%, 45.71%, and 43.74%, respectively.
# The 2,2-diphenyl-1-picrylhydrazyl (DPPH) free radical (Alfa Aesar) was prepared at 0.1 mM in ethanol. The cannabinoids were tested at a final concentration of 100 uM. 2 uL of 7.5 mM stock solutions of the cannabinoids to be tested in DMSO were added to 148 uL of 0.1 mM DPPH to achieve a final concentration of 100 μM in the assay. Ascorbic acid (Thermo Scientific) at a final concentration of 10 mg/ml was used as a positive control. The reaction mixture was incubated in the dark at room temperature for 1 hour, the absorbance of the mixture was read at 517 nm using a Spectra Max 5M microplate reader (Molecular Devices, LLC, Sunnyvale, Calif., USA) and the absorbance was converted to percent radical scavenging activity (% RSA) using the following formula: % RSA=[(Absorbance of the control−Absorbance of the sample)/(Absorbance of the control)]×100.
# Free radical production occurs when the immune system is activated and antioxidants represent potential effective treatments for inflammatory conditions and autoimmune diseases. […] The DPPH antioxidant assay can be used to measure the ability of a compound to scavenge free radicals by measuring the ability of compounds to hydrogenate and reduce DPPH. The DPPH assay was conducted on CBCA, CBDA, CBDVA, CBGA, CBLA, CBNA, THCVA, and their decarboxylated derivatives as well as the 1:1 CBD:CBDA mixture.
# [1] = test system: differentiated U-937 cells; assay: Human cellular U-937 autophagy induction assay (anti-LC3); type: cell-based; conditions: for activation at 1 µM: Homo sapiens, U-937, 12 h, read-out: Induction of autophagy with respect to the untreated control
# Protocol: The induction of autophagy was monitored using anti-LC3 antibodies to detect LC3 on the autophagosome in human U-937 pro-monocytic histiocytic lymphoma cells (ATCC, Manassas, Va., USA), which generate morphologies characteristic of macrophages upon induction by various stimuli. U-937 cells were cultured in RPMI-1640 medium with L-glutamine and sodium bicarbonate (Sigma-Aldrich, St Louis, Mo.) supplemented with 10% fetal bovine serum (FBS) and 1% penicillin in 25 cm2 tissue flasks at 37° C. in a 5% CO2 humidified atmosphere and passaged every 2-3 days. U-937 cells were seeded in 96 well plates at 5×10^5 cells/mL and stimulated with 100 ng/mL PMA to induce differentiation for 24 hours. The cells were then treated with the various cannabinoids at 1.0 μM concentrations for 12 hours. 30 μM chloroquine was used as a positive control. After treatment, the cells were fixed using 3.7% formaldehyde in PBS for 15 minutes at room temperature and washed with PBS to remove the fixative. Permeabilization reagent (0.2% Triton X-100 in PBS) (Sigma-Aldrich) was added, the cells were incubated for 15 minutes at room temperature and then the cells were washed with PBS to remove the permeabilization reagent. LC3B rabbit polyclonal antibody (Invitrogen) was added at a final concentration of 0.5 μg/ml for 1 hour at room temperature and the cells were washed with PBS remove the primary antibody. Secondary conjugated goat anti-rabbit polyclonal antibody (Thermo Scientific) was then added at a final concentration of 2.0 μg/ml for 1 hour at room temperature. The cells were washed, Hoechst dye was added to stain the nucleus and the cells were imaged using an Arrayscan VTI high-content screening (HCS) reader (Thermo Scientific) with the appropriate filters and the data was analyzed using the vHCS Scan software.
# Chloroquine at a concentration of 30 μM was included as a positive control. The ability to induce autophagy was determined as a percentage with respect to the untreated control.
# [2] = test system: cytokine levels in differentiated THP-1 cells treated with LPS; assay: THP-1 human cellular LPS cytokine assay, three independent experiments, total averaged suppression; conditions: for inhibition at 2 µM: Homo sapiens, THP-1, 4 h, read-out: % Cytokine Suppression (total averaged)
# Protocol: Cells were seeded onto 24-, or 12-well plates and incubated for 48 hours to 72 hours to allow for differentiation. […] Supernatants were collected for quantification of human cytokine levels to assess the cytokine response. Cells remaining after the supernatant collection were tested to ensure they had at least 90% viability as determined by Alamar Blue assays. To conduct the Alamar Blue assays, supernatants were replaced with culture medium containing 1× Alamar Blue reagent and incubated overnight. Cell viability was assessed by measuring relative fluorescent units (RFU) on the SpectraMax M2e microplate reader (Molecular Devices Inc., Sunnyvale, Calif., USA) at Excitation 560 nm and Emission 590 nm. Controls included untreated cells with DMSO at the same concentration as the treated cells, LPS stimulated cells with DMSO at the same concentration as the treated cells and LPS stimulated cell with the various treatments. The levels of 42 of the most common human cytokines (Eve Technologies, Calgary, Canada Table 6) were determined by multi-plex analysis.
# For this reason, the level of cytokine suppression was determined for each cytokine by each cannabinoid that was tested and the total averaged suppression for each cannabinoid was determined by dividing the total suppression by the number of the cytokines that were analyzed.
SMILES,"% RSA (radical scavenging activity) (DPPH antioxidant assay; 10 mg/ml, positive control) [%]","% RSA (radical scavenging activity) (DPPH antioxidant assay; 100 μM, 1 hour) [%]","Fluorescence (LC3) ([1]; 1.0 μM, 12 hours)",activation at 1 µM [1] [%],inhibition at 2 µM [2] [%],effectiveness at reducing elevated cytokine levels relative to dexamethasone [2],radical scavenging activity compared to the untreated control (DPPH antioxidant assay; 100 μM),"Fluorescence (LC3) ([1]; 30 uM, positive control)"
"O=C1O[C@H]([C@@H](O)CO)C(O)=C1O [Ascorbic acid, reference compound]",94.00,,,,,,,
"CCCCCc1cc(O)c2c(c1)OC(C)(CCC=C(C)C)C=C2 (centres unmarked) [CBC, 2-Methyl-2-(4-methyl-3-penten-1-yl)-7-pentyl-2H-chromen-5-ol]",,31.95,47.84,-0.85,22.6,,,
"CCCCCc1cc2c(c(O)c1C(=O)O)C=CC(C)(CCC=C(C)C)O2 (centres unmarked) [CBCA, 5-Hydroxy-2-methyl-2-(4-methyl-3-penten-1-yl)-7-pentyl-2H-chromene-6-carboxylic acid]",,19.02,42.61,-11.7,34.6,at least half as effective as dexamethasone,,
"C=C(C)C1CCC(C)=CC1c1c(O)cc(CCC)cc1O (centres unmarked) [CBDV, 2-(6-Isopropenyl-3-methyl-2-cyclohexen-1-yl)-5-propyl-1,3-benzenediol]",,44.21,38.19,-20.9,36.7,at least half as effective as dexamethasone,at least two-fold,
"C=C(C)[C@@H]1CCC(C)=C[C@H]1c1c(O)cc(CCC)c(C(=O)O)c1O [CBDVA, 2,4-Dihydroxy-3-[(1R,6R)-6-isopropenyl-3-methyl-2-cyclohexen-1-yl]-6-propylbenzoic acid]",,43.81,39.29,-18.6,32.4,at least half as effective as dexamethasone,at least two-fold,
"CCCCCc1cc(O)c(C/C=C(\C)CCC=C(C)C)c(O)c1 [CBG, 2-[(2E)-3,7-Dimethyl-2,6-octadien-1-yl]-5-pentyl-1,3-benzenediol]",,44.28,37.35,-22.6,35.8,at least half as effective as dexamethasone,at least two-fold,
"CCCCCc1cc(O)c(C/C=C(\C)CCC=C(C)C)c(O)c1C(=O)O [CBGA, 3-[(2E)-3,7-Dimethyl-2,6-octadien-1-yl]-2,4-dihydroxy-6-pentylbenzoic acid]",,26.84,37.47,-22.3,34.3,at least half as effective as dexamethasone,,
"CCCCCc1cc(O)c2c(c1)OC1(C)CCC3C1C2C3(C)C (centres unmarked) [CBL, 1,1,3a-Trimethyl-6-pentyl-1a,2,3,3a,8b,8c-hexahydro-1H-4-oxabenzo[f]cyclobuta[cd]inden-8-ol]",,30.84,76.86,59.3,43.6,at least half as effective as dexamethasone,,
"CCCCCc1cc2c(c(O)c1C(=O)O)[C@@H]1[C@H]3[C@H](CC[C@@]3(C)O2)C1(C)C [CBLA, (1aS,3aR,8bR,8cR)-8-Hydroxy-1,1,3a-trimethyl-6-pentyl-1a,2,3,3a,8b,8c-hexahydro-1H-4-oxabenzo[f]cyclobuta[cd]indene-7-carboxylic acid]",,21.18,72.27,49.8,34.4,at least half as effective as dexamethasone,,
"CCCCCc1cc(O)c2c(c1)OC(C)(C)c1ccc(C)cc1-2 [CBN, 6,6,9-Trimethyl-3-pentyl-6H-benzo[c]chromen-1-ol]",,33.83,40.80,-15.4,37,at least half as effective as dexamethasone,,
"CCCCCc1cc2c(c(O)c1C(=O)O)-c1cc(C)ccc1C(C)(C)O2 [CBNA, 1-Hydroxy-6,6,9-trimethyl-3-pentyl-6H-benzo[c]chromene-2-carboxylic acid]",,24.92,36.89,-23.5,34,at least half as effective as dexamethasone,,
"CCN(CC)CCCC(C)Nc1ccnc2cc(Cl)ccc12 (centres unmarked) [Chloroquine, chloroquine, reference compound]",,,,,,,,111.20
"CCCc1cc(O)c2c(c1)OC(C)(C)[C@@H]1CCC(C)=C[C@@H]21 [THCV, (6aR,10aR)-6,6,9-trimethyl-3-propyl-6H,6aH,7H,8H,10aH-benzo[c]isochromen-1-ol]",,45.71,42.14,-12.7,34.8,at least half as effective as dexamethasone,at least two-fold,
"CCCc1cc2c(c(O)c1C(=O)O)[C@@H]1C=C(C)CC[C@H]1C(C)(C)O2 [THCVA, (6aR,10aR)-6a,7,8,10a-tetrahydro-1-hydroxy-6,6,9-trimethyl-3-propyl-6H-Dibenzo[b,d] pyran-2-carboxylic acid]",,29.22,66.45,37.7,28.4,at least half as effective as dexamethasone,,

# From US12678451B2, “Cannabinoid and omega fatty acid compositions and methods of using” (GreenWay Herbal Products, LLC, priority 2019, dated 2026)
